The target of this assay is T1, mGlyT-1b (Mus musculus, UniProt P28571).
T1 construct: host or cells: Flp-in-CHO cells (vendor and catalogue number are those of the host cell line)
T1 sequence (P28571 1-651 isoform P28571-2): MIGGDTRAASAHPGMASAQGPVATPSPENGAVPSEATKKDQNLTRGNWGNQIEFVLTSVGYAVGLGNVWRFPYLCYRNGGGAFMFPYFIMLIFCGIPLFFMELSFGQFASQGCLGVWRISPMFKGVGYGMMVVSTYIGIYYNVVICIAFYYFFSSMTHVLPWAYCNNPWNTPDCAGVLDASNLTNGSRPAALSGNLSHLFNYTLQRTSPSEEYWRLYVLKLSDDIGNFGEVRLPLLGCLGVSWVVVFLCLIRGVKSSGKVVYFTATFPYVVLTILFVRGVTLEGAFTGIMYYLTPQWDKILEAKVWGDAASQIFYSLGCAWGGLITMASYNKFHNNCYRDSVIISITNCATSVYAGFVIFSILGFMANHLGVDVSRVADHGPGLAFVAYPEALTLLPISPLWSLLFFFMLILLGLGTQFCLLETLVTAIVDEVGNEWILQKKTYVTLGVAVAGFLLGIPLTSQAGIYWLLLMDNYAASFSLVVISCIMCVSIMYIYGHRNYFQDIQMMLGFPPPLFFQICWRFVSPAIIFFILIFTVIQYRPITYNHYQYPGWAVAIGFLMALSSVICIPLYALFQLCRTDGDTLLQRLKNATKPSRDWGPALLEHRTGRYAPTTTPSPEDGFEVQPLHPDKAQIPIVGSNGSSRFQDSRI
The assay can be described thus: Glycine Uptake Inhibition Assay (mGlyT-1b). The assay is classed as cell-based. Particulars: inhibition of [3H]-glycine uptake in Flp-in-CHO cells transfected with mGlyT-1b cDNA; 20 min preincubation at 22° C.; read-out: IC50 (μM) at GlyT-1. The method, then:
DMEM complete medium: Nutrient mixture F-12 (Gibco Life-technologies), fetal bovine serum (FBS) 5%, (Gibco life technologies), Penicillin/Streptomycin 1% (Gibco life technologies), Hygromycin 0.6 mg/ml (Gibco life technologies), Glutamine 1 mM Gibco life technologies)
Uptake buffer (UB): 150 mM NaCl, 10 mM Hepes-Tris, pH 7.4, 1 mM CaCl2, 2.5 mM KCl, 2.5 mM MgSO4, 10 mM (+) D-glucose.
Flp-in™-CHO (Invitrogen Cat n° R758-07) cells stably transfected with mGlyT1b cDNA.
Glycine Uptake Inhibition Assay (mGlyT-1b)
On day 1 mammalian cells, (Flp-in™-CHO), transfected with mGlyT-1b cDNA, were plated at the density of 40,000 cells/well in complete F-12 medium, without hygromycin in 96-well culture plates. On day 2, the medium was aspirated and the cells were washed twice with uptake buffer (UB). The cells were then incubated for 20 min at 22° C. with either (i) no potential competitor, (ii) 10 mM non-radioactive glycine, (iii) a concentration of a potential inhibitor. A range of concentrations of the potential inhibitor was used to generate data for calculating the concentration of inhibitor resulting in 50% of the effect (e.g. IC50, the concentration of the competitor inhibiting glycine uptake of 50%). A solution was then immediately added containing [^3H]-glycine 60 nM (11–16 Ci/mmol) and 25 μM non-radioactive glycine. The plates were incubated with gentle shaking and the reaction was stopped by aspiration of the mixture and washing (three times) with ice-cold UB. The cells were lysed with scintillation liquid, shaken 3 hours and the radioactivity in the cells was counted using a scintillation counter.
Broadly, the IC50 is the concentration at which inhibition is half-maximal. As for `CC(C)Oc1ccc(S(C)(=O)=O)cc1C(=O)N1CCN(c2ncc(S(=O)(=O)c3ccccc3)s2)CC1` [Example 4, [4-(5-Benzenesulfonyl-thiazol-2-yl)-piperazin-1-yl]-(2-isopropoxy-5-methanesulfonyl-phenyl)-methanone], the IC50 is 0.061 µM.
The same measure for `CC(Oc1ccc(S(C)(=O)=O)cc1C(=O)N1CCN(c2ncc(C#N)s2)CC1)C(F)(F)F` (stereo not drawn) [Example 10, 2-{4-[5-Methanesulfonyl-2-(2,2,2-trifluoro-1-methyl-ethoxy)-benzoyl]-piperazin-1-yl}-thiazole-5-carbonitrile]: 0.082 µM; for `CS(=O)(=O)c1ccc(OCC2CCC2)c(C(=O)N2CCN(c3ncc(C#N)s3)CC2)c1` [Example 14, 2-[4-(2-Cyclobutylmethoxy-5-methanesulfonyl-benzoyl)-piperazin-1-yl]-thiazole-5-carbonitrile]: 0.083 µM.
Under `CC(C)COc1ccc(S(C)(=O)=O)cc1C(=O)N1CCN(c2ncc(C#N)s2)CC1` [Example 16, 2-[4-(2-Isobutoxy-5-methanesulfonyl-benzoyl)-piperazin-1-yl]-thiazole-5-carbonitrile] stands 0.065 µM; under `CC(C)(C)COc1ccc(S(C)(=O)=O)cc1C(=O)N1CCN(c2ncc(C#N)s2)CC1` [Example 19, 2-{4-[2-(2,2-Dimethyl-propoxy)-5-methanesulfonyl-benzoyl]-piperazin-1-yl}-thiazole-5-carbonitrile], 0.043 µM.
Consider `CC(C)(C)COc1ccc(S(C)(=O)=O)cc1C(=O)N1CCN(c2ncc(S(=O)(=O)c3ccccc3)s2)CC1` [Example 29, [4-(5-Benzenesulfonyl-thiazol-2-yl)-piperazin-1-yl]-[2-(2,2-dimethyl-propoxy)-5-methanesulfonyl-phenyl]-methanone], for which the IC50 was 0.017 µM.
The same measure for `CS(=O)(=O)c1ccc(OC2CCCC2)c(C(=O)N2CCN(c3ncc(S(=O)(=O)c4ccccc4)s3)CC2)c1` [Example 30, [4-(5-Benzenesulfonyl-thiazol-2-yl)-piperazin-1-yl]-(2-cyclopentyloxy-5-methanesulfonyl-phenyl)-methanone]: 0.023 µM; for `CC(C)COc1ccc(S(C)(=O)=O)cc1C(=O)N1CCN(c2ncc(S(=O)(=O)c3ccccc3)s2)CC1` [Example 31, [4-(5-Benzenesulfonyl-thiazol-2-yl)-piperazin-1-yl]-(2-isobutoxy-5-methanesulfonyl-phenyl)-methanone]: 0.024 µM.
For the compound `CCCCS(=O)(=O)c1cnc(N2CCN(C(=O)c3cc(S(C)(=O)=O)ccc3OC(C)C(F)(F)F)CC2)s1` (stereo not drawn) [Example 39, {4-[5-(Butane-1-sulfonyl)-thiazol-2-yl]-piperazin-1-yl}-[5-methanesulfonyl-2-(2,2,2-trifluoro-1-methyl-ethoxy)-phenyl]-methanone], the IC50 was found to be 0.07 µM.
Under `CCCCS(=O)(=O)c1cnc(N2CCN(C(=O)c3cc(S(C)(=O)=O)ccc3OC3CCCC3)CC2)s1` [Example 41, {4-[5-(Butane-1-sulfonyl)-thiazol-2-yl]-piperazin-1-yl}-(2-cyclopentyloxy-5-methanesulfonyl-phenyl)-methanone] stands 0.018 µM.
The same measure for `CCCCS(=O)(=O)c1cnc(N2CCN(C(=O)c3cc(S(C)(=O)=O)ccc3OCC(C)(C)C)CC2)s1` [Example 42, {4-[5-(Butane-1-sulfonyl)-thiazol-2-yl]-piperazin-1-yl}-[2-(2,2-dimethyl-propoxy)-5-methanesulfonyl-phenyl]-methanone]: 0.046 µM; for `Cc1sc(N2CCN(C(=O)c3cc(S(C)(=O)=O)ccc3OC(C)C(F)(F)F)CC2)nc1C(F)(F)F` (stereo not drawn) [Example 55, [5-Methanesulfonyl-2-(2,2,2-trifluoro-1-methyl-ethoxy)-phenyl]-[4-(5-methyl-4-trifluoromethyl-thiazol-2-yl)-piperazin-1-yl]-methanone]: 0.073 µM.
The same measure for `CC(Oc1ccc(S(C)(=O)=O)cc1C(=O)N1CCN(c2ncc(C(F)(F)F)s2)CC1)C(F)(F)F` (stereo not drawn) [Example 59, [5-Methanesulfonyl-2-(2,2,2-trifluoro-1-methyl-ethoxy)-phenyl]-[4-(5-trifluoromethyl-thiazol-2-yl)-piperazin-1-yl]-methanone]: 0.098 µM.
For the compound `CC(C)(Oc1ccc(S(C)(=O)=O)cc1C(=O)N1CCN(c2ncc(C(F)(F)F)s2)CC1)C(F)(F)F` [Example 66, [5-Methanesulfonyl-2-(2,2,2-trifluoro-1,1-dimethyl-ethoxy)-phenyl]-[4-(5-trifluoromethyl-thiazol-2-yl)-piperazin-1-yl]-methanone], the IC50 came to 0.061 µM.
Under `C[C@H](Oc1ccc(S(C)(=O)=O)cc1C(=O)N1CCN(c2ncc(C(F)(F)F)s2)CC1)C(F)(F)F` [Example 67, [5-Methanesulfonyl-2-((S)-2,2,2-trifluoro-1-methyl-ethoxy)-phenyl]-[4-(5-trifluoromethyl-thiazol-2-yl)-piperazin-1-yl]-methanone] stands 0.046 µM.
The same measure for `C[C@@H](Oc1ccc(S(C)(=O)=O)cc1C(=O)N1CCN(c2ncc(C(F)(F)F)s2)CC1)C(F)(F)F` [Example 68, [5-Methanesulfonyl-2-((R)-2,2,2-trifluoro-1-methyl-ethoxy)-phenyl]-[4-(5-trifluoromethyl-thiazol-2-yl)-piperazin-1-yl]-methanone]: 0.082 µM; for `CC(Oc1ccc(S(C)(=O)=O)cc1C(=O)N1CCN(c2ncc(CC(F)(F)F)s2)CC1)C(F)(F)F` (stereo not drawn) [Example 69, [5-Methanesulfonyl-2-(2,2,2-trifluoro-1-methyl-ethoxy)-phenyl]-{4-[5-(2,2,2-trifluoro-ethyl)-thiazol-2-yl]-piperazin-1-yl}-methanone]: 0.056 µM.
`C[C@H](Oc1ccc(S(C)(=O)=O)cc1C(=O)N1CCN(c2ncc(CC(F)(F)F)s2)CC1)C(F)(F)F` [Example 70, [5-Methanesulfonyl-2-((S)-2,2,2-trifluoro-1-methyl-ethoxy)-phenyl]-{4-[5-(2,2,2-trifluoro-ethyl)-thiazol-2-yl]-piperazin-1-yl}-methanone]: the 50% inhibitory concentration (IC50) stood at 0.057 µM.
Under `C[C@@H](Oc1ccc(S(C)(=O)=O)cc1C(=O)N1CCN(c2ncc(CC(F)(F)F)s2)CC1)C(F)(F)F` [Example 71, [5-Methanesulfonyl-2-((R)-2,2,2-trifluoro-1-methyl-ethoxy)-phenyl]-{4-[5-(2,2,2-trifluoro-ethyl)-thiazol-2-yl]-piperazin-1-yl}-methanone] stands 0.069 µM.
Consider `CCS(=O)(=O)c1ccc(OC(C)C(F)(F)F)c(C(=O)N2CCN(c3ncc(C(F)(F)F)s3)CC2)c1` (stereo not drawn) [Example 74, [5-Ethanesulfonyl-2-(2,2,2-trifluoro-1-methyl-ethoxy)-phenyl]-[4-(5-trifluoromethyl-thiazol-2-yl)-piperazin-1-yl]-methanone], for which the IC50 was 0.031 µM.
For `CC[C@@H](C)Oc1ccc(S(C)(=O)=O)cc1C(=O)N1CCN(c2ncc(C(F)(F)F)s2)CC1` [Example 77, (2-((R)-sec-Butoxy)-5-methanesulfonyl-phenyl)-[4-(5-trifluoromethyl-thiazol-2-yl)-piperazin-1-yl]-methanone], the IC50 turned out to be 0.1 µM.
Under `CC[C@H](C)Oc1ccc(S(C)(=O)=O)cc1C(=O)N1CCN(c2ncc(C(F)(F)F)s2)CC1` [Example 78, (2-((S)-sec-Butoxy)-5-methanesulfonyl-phenyl)-[4-(5-trifluoromethyl-thiazol-2-yl)-piperazin-1-yl]-methanone] stands 0.089 µM.
The same measure for `Cc1nc(N2CCN(C(=O)c3cc(S(C)(=O)=O)ccc3OC(C)C)CC2)sc1C(F)(F)F` [Example 79, (2-Isopropoxy-5-methanesulfonyl-phenyl)-[4-(4-methyl-5-trifluoromethyl-thiazol-2-yl)-piperazin-1-yl]-methanone]: 0.067 µM.
Under `Cc1nc(N2CCN(C(=O)c3cc(S(C)(=O)=O)ccc3O[C@@H](C)C(F)(F)F)CC2)sc1C(F)(F)F` [Example 80, [5-Methanesulfonyl-2-((S)-2,2,2-trifluoro-1-methyl-ethoxy)-phenyl]-[4-(4-methyl-5-trifluoromethyl-thiazol-2-yl)-piperazin-1-yl]-methanone] stands 0.046 µM.

The values above are taken from patent publication US7220744B2, “Monocyclic substituted phenyl methanones” (Hoffman-La Roche Inc., priority 2005, dated 2007).
